Data reported in PubChem BioAssay (NCI).
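Five compound concentrations were applied to cells in 96-well plates for 48 hours; endpoints were derived by simple linear interpolation of the resulting dose-response curve. The concentration for 50% growth inhibition is given as GI50. TGI: total growth inhibition.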

How the values were obtained:
Experiment in all cases: NCI tumour cell line growth inhibition, 48 h
[1] = system: 786-0 renal
[2] = system: A498 renal
[3] = system: A549 NSCLC
[4] = system: ACHN renal
[5] = system: BT-549 breast
[6] = system: CAKI-1 renal
[7] = system: CCRF-CEM leukemia
[8] = system: COLO 205 colon
[9] = system: DU-145 prostate
[10] = system: EKVX NSCLC
[11] = system: HCC-2998 colon
[12] = system: HCT-116 colon
[13] = system: HCT-15 colon
[14] = system: HL-60(TB) leukemia
[15] = system: HOP-62 NSCLC
[16] = system: HOP-92 NSCLC
[17] = system: HS 578T breast
[18] = system: HT29 colon
[19] = system: IGROV1 ovarian
[20] = system: K-562 leukemia
[21] = system: KM12 colon
[22] = system: LOX IMVI melanoma
[23] = system: M14 melanoma
[24] = system: MALME-3M melanoma
[25] = system: MCF7 breast
[26] = system: MDA-MB-231 breast
[27] = system: MDA-MB-435
[28] = system: MDA-MB-468 breast
[29] = system: MOLT-4 leukemia
[30] = system: NCI-H226 lung
[31] = system: NCI-H23 lung
[32] = system: NCI-H460 lung
[33] = system: NCI-H522 lung
[34] = system: OVCAR-3 ovarian
[35] = system: OVCAR-4 ovarian
[36] = system: OVCAR-5 ovarian
[37] = system: OVCAR-8 ovarian
[38] = system: PC-3 prostate
[39] = system: RPMI-8226 leukemia
[40] = system: RXF 393 renal
[41] = system: SF-268 CNS
[42] = system: SF-295 CNS
[43] = system: SF-539 CNS
[44] = system: SK-MEL-28 melanoma
[45] = system: SK-MEL-5 melanoma
[46] = system: SK-OV-3 ovarian
[47] = system: SN12C renal
[48] = system: SNB-19 CNS
[49] = system: SNB-75 CNS
[50] = system: SR leukemia
[51] = system: SW-620 colon
[52] = system: T-47D breast
[53] = system: TK-10 renal
[54] = system: U251 CNS
[55] = system: UACC-257 melanoma
[56] = system: UACC-62 melanoma
[57] = system: UO-31 renal
[58] = system: NCI/ADR-RES ovarian
[59] = system: SK-MEL-2 melanoma

Compound: COc1ccc(C(SCCNCc2cc(N(C)C)ccn2)(c2ccccc2)c2ccccc2)cc1
- GI50 [1]: 1.4 µM
- TGI [1]: 7.55 µM
- GI50 [2]: 15.6 µM
- TGI [2]: 30.1 µM
- GI50 [3]: 3.79 µM
- TGI [3]: 20 µM
- GI50 [4]: 2.48 µM
- TGI [4]: 18.5 µM
- GI50 [5]: 1.92 µM
- TGI [5]: 6.03 µM
- GI50 [6]: 3.54 µM
- TGI [6]: 17.6 µM
- GI50 [7]: 0.468 µM
- TGI [7]: 15.4 µM
- GI50 [8]: 1.09 µM
- TGI [8]: 2.97 µM
- GI50 [9]: 3.5 µM
- TGI [9]: 12.8 µM
- GI50 [10]: 1.5 µM
- TGI [10]: 17.1 µM
- GI50 [11]: 0.7 µM
- TGI [11]: 2.14 µM
- GI50 [12]: 0.324 µM
- TGI [12]: 10.5 µM
- GI50 [13]: 0.432 µM
- TGI [13]: 11.6 µM
- GI50 [14]: 2.11 µM
- TGI [14]: 5.28 µM
- GI50 [15]: 4.34 µM
- TGI [15]: 19.8 µM
- GI50 [16]: 2.16 µM
- TGI [16]: 11 µM
- GI50 [17]: 1.37 µM
- TGI [17]: 9.32 µM
- GI50 [18]: 2.25 µM
- TGI [18]: 5.66 µM
- GI50 [19]: 3.43 µM
- TGI [19]: 17.1 µM
- GI50 [20]: 0.697 µM
- TGI [20]: 13.6 µM
- GI50 [21]: 3.66 µM
- TGI [21]: 16 µM
- GI50 [22]: 2.04 µM
- TGI [22]: 11.4 µM
- GI50 [23]: 0.447 µM
- TGI [23]: 2.48 µM
- GI50 [24]: 3.36 µM
- TGI [24]: 15.8 µM
- GI50 [25]: 0.322 µM
- TGI [25]: 11 µM
- GI50 [26]: 1.48 µM
- TGI [26]: 4.8 µM
- GI50 [27]: 0.214 µM
- TGI [27]: 0.475 µM
- GI50 [28]: 0.544 µM
- TGI [28]: 2.9 µM
- GI50 [29]: 3.47 µM
- TGI [29]: 13.6 µM
- GI50 [30]: 4.45 µM
- TGI [30]: 17.8 µM
- GI50 [31]: 3.12 µM
- TGI [31]: 13.1 µM
- GI50 [32]: 2.93 µM
- TGI [32]: 12.5 µM
- GI50 [33]: 0.707 µM
- TGI [33]: 5.77 µM
- GI50 [34]: 2.53 µM
- TGI [34]: 12.4 µM
- GI50 [35]: 9.25 µM
- TGI [35]: 22.7 µM
- GI50 [36]: 3.07 µM
- TGI [36]: 11.9 µM
- GI50 [37]: 1.87 µM
- TGI [37]: 18.1 µM
- GI50 [38]: 1.67 µM
- TGI [38]: 15 µM
- GI50 [39]: 0.954 µM
- TGI [39]: 10 µM
- GI50 [40]: 2.61 µM
- TGI [40]: 11.5 µM
- GI50 [41]: 4.02 µM
- TGI [41]: 20.4 µM
- GI50 [42]: 0.618 µM
- TGI [42]: 11.5 µM
- GI50 [43]: 1.61 µM
- TGI [43]: 3.83 µM
- GI50 [44]: 5.6 µM
- TGI [44]: 18.7 µM
- GI50 [45]: 1.08 µM
- TGI [45]: 3.82 µM
- GI50 [46]: 3.57 µM
- TGI [46]: 15.9 µM
- GI50 [47]: 1.49 µM
- TGI [47]: 13.7 µM
- GI50 [48]: 3.48 µM
- TGI [48]: 15.3 µM
- GI50 [49]: 2.86 µM
- TGI [49]: 13.6 µM
- GI50 [50]: 0.566 µM
- TGI [50]: > 100 µM
- GI50 [51]: 0.916 µM
- TGI [51]: 16.8 µM
- GI50 [52]: 4.7 µM
- TGI [52]: 21.9 µM
- GI50 [53]: 9.54 µM
- TGI [53]: 21.7 µM
- GI50 [54]: 0.592 µM
- TGI [54]: 13.6 µM
- GI50 [55]: 5.71 µM
- TGI [55]: 19.8 µM
- GI50 [56]: 4.22 µM
- TGI [56]: 16.6 µM
- GI50 [57]: 3.78 µM
- TGI [57]: 17.5 µM

Compound: Cn1cc(-c2cc3nc(-c4c[nH]c5ccccc45)cc(N)n3n2)c2cc(Cl)ccc21
- GI50 [1]: 1.64 µM
- TGI [1]: 3.12 µM
- GI50 [2]: 3.16 µM
- TGI [2]: 11.1 µM
- GI50 [4]: 1.75 µM
- TGI [4]: 3.41 µM
- GI50 [5]: 12.9 µM
- TGI [5]: 32.2 µM
- GI50 [6]: 1.66 µM
- TGI [6]: 3.2 µM
- GI50 [7]: 4.4 µM
- TGI [7]: > 100 µM
- GI50 [8]: 1.89 µM
- TGI [8]: 3.59 µM
- GI50 [9]: 3.62 µM
- TGI [9]: 13.4 µM
- GI50 [10]: 2.12 µM
- TGI [10]: 6.03 µM
- GI50 [11]: 1.87 µM
- TGI [11]: 3.5 µM
- GI50 [12]: 1.75 µM
- TGI [12]: 3.24 µM
- GI50 [13]: 1.62 µM
- TGI [13]: 3.35 µM
- GI50 [14]: 1.94 µM
- TGI [14]: 5.01 µM
- GI50 [15]: 2.12 µM
- TGI [15]: 5.31 µM
- GI50 [16]: 1.99 µM
- TGI [16]: 4.1 µM
- GI50 [17]: 2.38 µM
- TGI [17]: 6.49 µM
- GI50 [18]: 1.93 µM
- TGI [18]: 3.99 µM
- GI50 [19]: 2.53 µM
- TGI [19]: 7.62 µM
- GI50 [20]: 2.26 µM
- TGI [20]: 6.3 µM
- GI50 [21]: 1.99 µM
- TGI [21]: 4.24 µM
- GI50 [22]: 1.71 µM
- TGI [22]: 3.15 µM
- GI50 [23]: 1.77 µM
- TGI [23]: 3.36 µM
- GI50 [24]: 1.7 µM
- TGI [24]: 3.26 µM
- GI50 [25]: 1.66 µM
- TGI [25]: 3.31 µM
- GI50 [26]: 2.31 µM
- TGI [26]: 5.24 µM
- GI50 [27]: 1.79 µM
- TGI [27]: 3.32 µM
- GI50 [28]: 1.62 µM
- TGI [28]: 3.37 µM
- GI50 [29]: 2.71 µM
- TGI [29]: 11.1 µM
- GI50 [30]: 16.9 µM
- TGI [30]: 44 µM
- GI50 [31]: 2.26 µM
- TGI [31]: 5.58 µM
- GI50 [32]: 2.36 µM
- TGI [32]: 5.56 µM
- GI50 [33]: 1.75 µM
- TGI [33]: 3.75 µM
- GI50 [58]: 2.46 µM
- TGI [58]: 6.8 µM
- GI50 [34]: 2.23 µM
- TGI [34]: 4.76 µM
- GI50 [35]: 1.82 µM
- TGI [35]: 3.49 µM
- GI50 [36]: 1.81 µM
- TGI [36]: 4.22 µM
- GI50 [37]: 2.23 µM
- TGI [37]: 5.07 µM
- GI50 [38]: 2.97 µM
- TGI [38]: 9.37 µM
- GI50 [39]: 2.94 µM
- TGI [39]: 9.18 µM
- GI50 [40]: 1.87 µM
- TGI [40]: 3.81 µM
- GI50 [41]: 2.16 µM
- TGI [41]: 5.44 µM
- GI50 [42]: 1.78 µM
- TGI [42]: 3.53 µM
- GI50 [43]: 1.73 µM
- TGI [43]: 3.19 µM
- GI50 [59]: 2.11 µM
- TGI [59]: 4.63 µM
- GI50 [44]: 1.7 µM
- TGI [44]: 3.12 µM
- GI50 [45]: 1.98 µM
- TGI [45]: 4.09 µM
- GI50 [46]: 2.24 µM
- TGI [46]: 5.62 µM
- GI50 [47]: 1.9 µM
- TGI [47]: 4.15 µM
- GI50 [48]: 3.29 µM
- TGI [48]: 13.8 µM
- GI50 [49]: 1.52 µM
- TGI [49]: 3.06 µM
- GI50 [50]: 2.61 µM
- TGI [50]: 9.11 µM
- GI50 [52]: 1.76 µM
- TGI [52]: 3.82 µM
- GI50 [53]: 2.03 µM
- TGI [53]: 5.36 µM
- GI50 [54]: 1.8 µM
- TGI [54]: 3.61 µM
- GI50 [55]: 1.68 µM
- TGI [55]: 3.25 µM
- GI50 [56]: 1.8 µM
- TGI [56]: 3.51 µM
- GI50 [57]: 1.72 µM
- TGI [57]: 3.25 µM
